Each molecule was assayed against T1, hGPR119 (Homo sapiens, UniProt Q8TDV5) (assay: In vitro cyclic AMP assay (Cisbio dynamic 2 HTRF kit) in CHO-hGPR119 cells). Conditions: 1 h, cAMP, compound at 1 μM, 60 min, read-out: Induction (% induction at 1 μM).
T1 construct: expressed in transfected cells; host or cells: CHO
T1 sequence (Q8TDV5 1-335): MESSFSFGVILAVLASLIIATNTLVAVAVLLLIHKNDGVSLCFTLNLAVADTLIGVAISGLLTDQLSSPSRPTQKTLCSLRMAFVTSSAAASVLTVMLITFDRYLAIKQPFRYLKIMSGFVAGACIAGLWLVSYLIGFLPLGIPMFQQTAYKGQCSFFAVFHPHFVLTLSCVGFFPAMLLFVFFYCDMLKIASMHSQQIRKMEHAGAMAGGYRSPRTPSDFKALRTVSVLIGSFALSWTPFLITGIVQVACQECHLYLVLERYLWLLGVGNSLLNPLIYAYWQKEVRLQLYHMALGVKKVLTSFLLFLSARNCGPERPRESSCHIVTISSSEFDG
Assay type: cell-based

Row | Compound | activation at 1 µM [%]
1 | CC(C)c1noc(N2CCC([C@H](C)Oc3nc4ccc(-c5cnc(S(C)(=O)=O)nc5)nc4s3)CC2)n1 [Compound 1133, 2-((S)-1-(1-(3-isopropyl-1,2,4-oxadiazol-5-yl)piperidin-4-yl)ethoxy)-5-(2-(methylsulfonyl)pyrimidin-5-yl)thiazolo[5,4-b]pyridine] | 55
2 | CC(C)c1noc(N2CCC(C(C)Oc3nc4ccc(-c5ccnnc5)nc4s3)CC2)n1 (stereo not drawn) [Compound 1134, 3-isopropyl-5-(4-(1-((5-(pyridazin-4-yl)thiazolo[5,4-b]pyridin-2-yl)oxy)ethyl)piperidin-1-yl)-1,2,4-oxadiazole] | 40
3 | C[C@H](Oc1nc2ccc(-c3ccc(S(C)(=O)=O)nc3)nc2s1)C1CCN(c2ncc(Cl)cn2)CC1 [Compound 1136, 2-((S)-1-(1-(5-chloropyrimidin-2-yl)piperidin-4-yl)ethoxy)-5-(6-(methylsulfonyl)pyridin-3-yl)thiazolo[5,4-b]pyridine] | 82
4 | CC(Oc1nc2ccc(-c3ccc(S(C)(=O)=O)nc3)nc2s1)C1CCN(c2ncc(C3CC3)cn2)CC1 (stereo not drawn) [Compound 1137, 2-(1-(1-(5-cyclopropylpyrimidin-2-yl)piperidin-4-yl)ethoxy)-5-(6-(methylsulfonyl)pyridin-3-yl)thiazolo[5,4-b]pyridine] | 73
5 | CC(=O)N(C)c1ncc(-c2ccc3nc(OC(C)C4CCN(c5nc(C(C)C)no5)CC4)sc3n2)cn1 (stereo not drawn) [Compound 1139, N-(5-(2-(1-(1-(3-isopropyl-1,2,4-oxadiazol-5-yl)piperidin-4-yl)ethoxy)thiazolo[5,4-b]pyridin-5-yl)pyrimidin-2-yl)-N-methylacetamide] | 65
6 | CC(C)c1noc(N2CCC([C@@H](C)Oc3nc4ccc(-c5ccc(S(C)(=O)=O)nc5)nc4s3)C2)n1 (stereo partly drawn) [Compound 1140, 2-((R)-1-(1-(3-isopropyl-1,2,4-oxadiazol-5-yl)pyrrolidin-3-yl)ethoxy)-5-(6-(methylsulfonyl)pyridin-3-yl)thiazolo[5,4-b]pyridine] | 4
7 | CC(C)c1noc(N2CCC([C@H](C)Oc3nc4ccc(-c5ccc(S(C)(=O)=O)nc5)nc4s3)C2)n1 (stereo partly drawn) [Compound 1141, 2-((S)-1-(-(3-isopropyl-1,2,4-oxadiazol-5-yl)pyrrolidin-3-yl)ethoxy)-5-(6-(methylsulfonyl)pyridin-3-yl)thiazolo[5,4-b]pyridine] | 3
8 | CC(C)c1noc(N2CCC(C(C)Oc3nc4ccc(-c5ccc(Cl)nc5)nc4s3)CC2)n1 (stereo not drawn) [Compound 1142, 2-(1-(1-(3-isopropyl-1,2,4-oxadiazol-5-yl)piperidin-4-yl)ethoxy)-5-(6-chloropyridin-3-yl)thiazolo[5,4-b]pyridine] | 72
9 | CC(C)c1noc(N2CCC(C(C)Oc3nc4ccc(-c5ccc(N6CCNC6=O)nc5)nc4s3)CC2)n1 (stereo not drawn) [Compound 1144, 1-(5-(2-(1-(1-(3-isopropyl-1,2,4-oxadiazol-5-yl)piperidin-4-yl)ethoxy)thiazolo[5,4-b]pyridin-5-yl)pyridin-2-yl)imidazolidin-2-one] | 69
10 | CC(C)c1noc(N2CCC(C(C)Oc3nc4ccc(-c5ccc(N6CCCC6=O)nc5)nc4s3)CC2)n1 (stereo not drawn) [Compound 1146, 1-(5-(2-(1-(1-(3-isopropyl-1,2,4-oxadiazol-5-yl)piperidin-4-yl)ethoxy)thiazolo[5,4-b]pyridin-5-yl)pyridin-2-yl)pyrrolidin-2-one] | 61
11 | CC(Oc1nc2ccc(-c3ccc(S(C)(=O)=O)cc3)nc2s1)C1CCN(c2cnc(Cl)cn2)CC1 (stereo not drawn) [Compound 1148, 2-(1-(1-(5-chloropyrazin-2-yl)piperidin-4-yl)ethoxy)-5-(4-(methylsulfonyl)phenyl)thiazolo[5,4-b]pyridine] | 70
12 | CCc1cnc(N2CCC(C(C)Oc3nc4ccc(-c5ccncc5)nc4s3)CC2)nc1 (stereo not drawn) [Compound 1149, 2-(1-(1-(5-ethylpyrimidin-2-yl)piperidin-4-yl)ethoxy)-5-(pyridin-4-yl)thiazolo[5,4-b]pyridine] | 64
13 | CCCc1cnc(N2CCC(C(C)Oc3nc4ccc(-c5ccncc5)nc4s3)CC2)nc1 (stereo not drawn) [Compound 1150, 2-(1-(1-(5-propylpyrimidin-2-yl)piperidin-4-yl)ethoxy)-5-(pyridin-4-yl)thiazolo[5,4-b]pyridine] | 67
14 | CC(Oc1nc2ccc(-c3ccc(S(C)(=O)=O)nc3)nc2s1)C1CCN(c2cnc(Cl)cn2)CC1 (stereo not drawn) [Compound 1151, 2-(1-(1-(5-chloropyrazin-2-yl)piperidin-4-yl)ethoxy)-5-(6-(methylsulfonyl)pyridin-3-yl)thiazolo[5,4-b]pyridine] | 66
15 | CC(C)c1noc(N2CCC([C@H](C)Oc3nc4ccc(-c5ccc(C(F)(F)F)nc5)nc4s3)CC2)n1 [Compound 1152, 2-(1-(1-(3-isopropyl-1,2,4-oxadiazol-5-yl)piperidin-4-yl)ethoxy)-5-(6-(trifluoromethyl)pyridin-3-yl)thiazolo[5,4-b]pyridine] | 77

Further lines, results first:

Row | activation at 1 µM [%] | Compound
16 | 85 | CCCc1cnc(N2CCC([C@H](C)Oc3nc4ccc(-c5ccncc5)nc4s3)CC2)nc1 [Compound 1153, 2-((S)-1-(1-(5-propylpyrimidin-2-yl)piperidin-4-yl)ethoxy)-5-(pyridin-4-yl)thiazolo[5,4-b]pyridine]
17 | 65 | CCc1cnc(N2CCC([C@H](C)Oc3nc4ccc(-c5ccc(C(F)(F)F)nc5)nc4s3)CC2)nc1 [Compound 1154, (S)-2-(1-(1-(5-ethylpyrimidin-2-yl)piperidin-4-yl)ethoxy)-5-(6-(trifluoromethyl)pyridin-3-yl)thiazolo[5,4-b]pyridine]
18 | 54 | CCc1noc(N2CCC(C(C)Oc3nc4ccc(-c5ccc(S(C)(=O)=O)nc5)nc4s3)CC2)n1 (stereo not drawn) [Compound 1156, 2-(1-(1-(3-ethyl-1,2,4-oxadiazol-5-yl)piperidin-4-yl)ethoxy)-5-(6-(methylsulfonyl)pyridin-3-yl)thiazolo[5,4-b]pyridine]
19 | 81 | Cc1cnc(N2CCC(C(C)Oc3nc4ccc(-c5ccc(S(C)(=O)=O)nc5)nc4s3)CC2)nc1 (stereo not drawn) [Compound 1157, 2-(1-(1-(5-methylpyrimidin-2-yl)piperidin-4-yl)ethoxy)-5-(6-(methylsulfonyl)pyridin-3-yl)thiazolo[5,4-b]pyridine]
20 | 80 | CC(C)c1noc(N2CCC(C(C)Oc3nc4ccc(-c5cnc(S(C)(=O)=O)cn5)nc4s3)CC2)n1 (stereo not drawn) [Compound 1158, 2-(1-(1-(3-isopropyl-1,2,4-oxadiazol-5-yl)piperidin-4-yl)ethoxy)-5-(5-(methylsulfonyl)pyrazin-2-yl)thiazolo[5,4-b]pyridine]
21 | 70 | CC(Oc1nc2ccc(-c3ccc(S(C)(=O)=O)nc3)nc2s1)C1CCN(c2ncc(C(F)(F)F)cn2)CC1 (stereo not drawn) [Compound 1159, 2-(1-(1-(5-(trifluoromethyl)pyrimidin-2-yl)piperidin-4-yl)ethoxy)-5-(6-(methylsulfonyl)pyridin-3-yl)thiazolo[5,4-b]pyridine]
22 | 76 | CCc1noc(N2CCC([C@H](C)Oc3nc4ccc(-c5ccc(S(C)(=O)=O)nc5)nc4s3)CC2)n1 [Compound 1160, 2-((S)-1-(1-(3-ethyl-1,2,4-oxadiazol-5-yl)piperidin-4-yl)ethoxy)-5-(6-(methylsulfonyl)pyridin-3-yl)thiazolo[5,4-b]pyridine]
23 | 69 | CC(C)c1noc(N2CCC(C(C)Oc3nc4ccc(-c5ccc(S(C)(=O)=O)cn5)nc4s3)CC2)n1 (stereo not drawn) [Compound 1161, 2-(1-(1-(3-isopropyl-1,2,4-oxadiazol-5-yl)piperidin-4-yl)ethoxy)-5-(5-(methylsulfonyl)pyridin-2-yl)thiazolo[5,4-b]pyridine]
24 | 62 | CC(C)c1noc(N2CCC(C(C)Oc3nc4cnc(-c5ccc(S(C)(=O)=O)nc5)nc4s3)CC2)n1 (stereo not drawn) [Compound 1162, 2-(1-(1-(3-isopropyl-1,2,4-oxadiazol-5-yl)piperidin-4-yl)ethoxy)-5-(6-(methylsulfonyl)pyridin-3-yl)thiazolo[5,4-d]pyrimidine]
25 | 63 | COCc1cnc(N2CCC(C(C)Oc3nc4ccc(-c5ccc(S(C)(=O)=O)nc5)nc4s3)CC2)nc1 (stereo not drawn) [Compound 1163, 2-(1-(1-(5-(methoxymethyl)pyrimidin-2-yl)piperidin-4-yl)ethoxy)-5-(6-(methylsulfonyl)pyridin-3-yl)thiazolo[5,4-b]pyridine]
26 | 70 | COCc1cnc(N2CCC([C@@H](C)Oc3nc4ccc(-c5ccc(S(C)(=O)=O)nc5)nc4s3)CC2)nc1 [Compound 1165, 2-((R)-1-(1-(5-(methoxymethyl)pyrimidin-2-yl)piperidin-4-yl)ethoxy)-5-(6-(methylsulfonyl)pyridin-3-yl)thiazolo[5,4-b]pyridine]
27 | 70 | C[C@H](Oc1nc2ccc(-c3ccc(S(C)(=O)=O)nc3)nc2s1)C1CCN(c2ncc(C(F)(F)F)cn2)CC1 [Compound 1166, 2-((S)-1-(1-(5-(trifluoromethyl)pyrimidin-2-yl)piperidin-4-yl)ethoxy)-5-(6-(methylsulfonyl)pyridin-3-yl)thiazolo[5,4-b]pyridine]
28 | 20 | CC(C)c1noc(N2CCC([C@H](C)Oc3nc4ccc(-c5ccc(S(C)(=O)=O)nc5F)nc4s3)CC2)n1 [Compound 1167, 2-((S)-1-(1-(3-isopropyl-1,2,4-oxadiazol-5-yl)piperidin-4-yl)ethoxy)-5-(2-fluoro-6-(methylsulfonyl)pyridin-3-yl)thiazolo[5,4-b]pyridine]

Same assay, conditions: cAMP

Row | Compound | EC50 [nM]
29 | C[C@H](Oc1nc2ccc(-c3ccc(S(C)(=O)=O)nc3)nc2s1)C1CCN(c2ncc(Cl)cn2)CC1 [Compound 1136, 2-((S)-1-(1-(5-chloropyrimidin-2-yl)piperidin-4-yl)ethoxy)-5-(6-(methylsulfonyl)pyridin-3-yl)thiazolo[5,4-b]pyridine] | 100 to 500
30 | CC(C)c1noc(N2CCC([C@H](C)Oc3nc4ccc(-c5ccc(C(F)(F)F)nc5)nc4s3)CC2)n1 [Compound 1152, 2-(1-(1-(3-isopropyl-1,2,4-oxadiazol-5-yl)piperidin-4-yl)ethoxy)-5-(6-(trifluoromethyl)pyridin-3-yl)thiazolo[5,4-b]pyridine] | 50 to 100

Next, values leading:

Row | EC50 [nM] | Compound
31 | 100 to 500 | CCCc1cnc(N2CCC([C@H](C)Oc3nc4ccc(-c5ccncc5)nc4s3)CC2)nc1 [Compound 1153, 2-((S)-1-(1-(5-propylpyrimidin-2-yl)piperidin-4-yl)ethoxy)-5-(pyridin-4-yl)thiazolo[5,4-b]pyridine]
32 | 25 to 50 | CCc1cnc(N2CCC([C@H](C)Oc3nc4ccc(-c5ccc(C(F)(F)F)nc5)nc4s3)CC2)nc1 [Compound 1154, (S)-2-(1-(1-(5-ethylpyrimidin-2-yl)piperidin-4-yl)ethoxy)-5-(6-(trifluoromethyl)pyridin-3-yl)thiazolo[5,4-b]pyridine]
33 | 25 to 50 | CCc1noc(N2CCC([C@H](C)Oc3nc4ccc(-c5ccc(S(C)(=O)=O)nc5)nc4s3)CC2)n1 [Compound 1160, 2-((S)-1-(1-(3-ethyl-1,2,4-oxadiazol-5-yl)piperidin-4-yl)ethoxy)-5-(6-(methylsulfonyl)pyridin-3-yl)thiazolo[5,4-b]pyridine]
